Results published in patent US8022043B2, “Ceramide derivatives as modulators of immunity and autoimmunity” (Albert Einstein College of Medicine of Yeshiva University, priority 2004, dated 2011).

Experiments:
NOD mice [1] = settings: twice weekly injection from 4 weeks of age, reduction from 75%; cited from earlier work
NK T hybridoma DN32.D3 [2] = assay: Murine NK T cell hybridoma stimulation assay (IL-2 release), JAWS II as APC; type: cell-based, mouse; settings: dendritic cell line JAWS-II as antigen presenting cell
Method: (§1) The ability of the compounds to activate NK T cell hybridomas in the presence of various types of cells expressing CD1d reported in FIG. 5A was determined using a murine NK T cell hybridoma stimulation assay. CD1d-transfected RMA-S cells were plated at 50,000 cells/well in flat-bottom tissue culture plates in 100 microliters complete medium containing varying concentrations of ceramide-like glycolipids for 6 h at 37° C. The plates were then centrifuged (430 g, 3 min), and cells washed with PBS three times. Fifty thousand NKT hybridoma cells (clone DN3A4.1-2) were then added in 100 microliters of medium for a 12 h stimulation. Cell-free supernatants were collected at the end of incubation and assayed for IL-2 by standard capture ELISA. Relative potencies of the ceramide-like glycolipids were calculated from the reciprocal effective concentrations at half-maximal response (1/EC50), and expressed as units by normalization to the observed potency for KRN7000.
(§2) IL-2 production by NK T hybridoma DN32D3 in response to eight selected ceramide-like glycolipids, was determined using three different cell types as antigen presenting cells. RMA-S.mCD1d are a mouse lymphoma line that has been transfected to express murine CD1d. JAWS II is a mouse dendritic cell line that naturally expresses mouse CD1d. HeLa.hCD1d is a human cervical carcinoma cell line that has been transfected to express human CD1d. […]

NK T hybridoma DN32.D3 [3] = assay: Murine NK T cell hybridoma stimulation assay (IL-2 release), HeLa.hCD1d as APC; type: cell-based, mouse; settings: presented by HeLa (human CD1d) cells
Method: as §1, §2

iNKT cells = assay: In vitro cytokine modulation, murine cell assay system; type: cell-based; settings: for in vitro activity at modulating cytokines: murine cell assay system
Text: The term iNKT cells, as used herein, mean the specific subset of CD1d-dependent T cells that expresses the invariant TCRα chain rearrangement consisting of Vα14-Jα18 in mice, and Vα24-Jα18 in humans. These cells are uniformly reactive to α-galactosylceramides presented by CD1d. These cells are also referred to as “Type 1” NKT cells, and the distinction between the different types of NKT cells and the nomenclature relating to this are summarized in the publication by Godfrey et al., Nat Rev Immunol. 2004 March; 4(3):231-7. Methods for determining cytokine production by iNKT cells in response to CD1d-presented glycolipids for determination of strong or weak agonist activity are described in Yu K O A, Im J S, Molano A, Dutronc Y, Illarionov P A, Forestier C, Fujiwara N, Arias I, Miyake S, Yamamura T, Chang Y-T, Besra G S, Porcelli S A, Modulation of CD1d-restricted NKT cell responses using N-acyl variants of α-galactosylceramides, Proc. Nat. Acad. Sci. (USA), 102:3383-8 (2005), see also Godfrey D I et al., Nat Rev Immunol. 2004 March; 4(3):231-7.

NK T cells = assay: NK T cell activation screens (Example, FIG. 5 and Table 1); type: cell-based; settings: see Example
Text: Using these methods, we produced more than 60 novel amino substituted analogues of KRN7000. These were screened in a functional assay that assessed the ability of the compounds to activate NK T cell hybridomas in the presence of various types of cells expressing CD1d, or in the presence of recombinant CD1d proteins bound to the tissue culture plate surface (FIG. 5).

NK T hybridoma DN32.D3 [4] = assay: Murine NK T cell hybridoma stimulation assay (IL-2 release), RMA-S.mCD1d as APC; type: cell-based, mouse; settings: presented by RMA-S/CD1d cells
Method: FIG. 5. […] NK T hybridoma DN32.D3 was cultured with CD1d-transfected RMA-S cells in microtiter plate wells. Each ceramide-like glycolipid was titrated over a concentration range from 0.5-500 nM, and supernatants were harvested after 24 hours for measurement of IL-2 release. Units of activity were calculated as the reciprocal of the concentration of ceramide-like glycolipid required to give a half maximal release of IL-2, and all values were normalized to the activity of KRN7000 (defined as 1 Unit). The dotted line indicates the level of activity for KRN7000. The structures of two ceramide-like glycolipids with markedly elevated activity relative to KRN7000 are shown.
The ability of the compounds to activate NK T cell hybridomas in the presence of various types of cells expressing CD1d reported in FIG. 5A was determined using a murine NK T cell hybridoma stimulation assay. […] Relative potencies of the ceramide-like glycolipids were calculated from the reciprocal effective concentrations at half-maximal response (1/EC50), and expressed as units by normalization to the observed potency for KRN7000.
IL-2 production by NK T hybridoma DN32D3 in response to eight selected ceramide-like glycolipids, was determined using three different cell types as antigen presenting cells. […]

C57BL/6 mice = assay: Serum IL-4 and IFNγ after a single i.p. injection; type: in vivo
Method: Serum levels of L-4 and IFNγ after a single injection of DB01-1, DB03-4, or DB03-5 are shown. C57BL/6 mice (11-13 weeks old) were given a single i.p. injection of 4.8 nanomoles of the compounds or phosphate buffered saline (PBS)/vehicle control. Serum cytokine levels were measured 2 and 20 hours later by capture ELISA. Bars show means of three mice, with standard deviation. Note that DB01-1 has nearly identical structure to KRN7000 (C24 fatty acid as compared to C26) and has activity that is indistinguishable from KRN7000 in multiple bioassays. We use DB01-1 as a “KRN7000 mimic” because it has been synthesized by our group and is readily available for our studies, and KRN7000 was unavailable due to license restrictions.
A most intriguing property of KRN7000 analogues is that in some cases they may elicit immune responses that are qualitatively different from those that occur following stimulation with the parent compound. […] This selective activation of IL-4 production by NK T cells was proposed to be the basis for the enhanced therapeutic effects of OCH in the EAE model of central nervous system autoimmune disease. We have observed a similar in vivo effect on the nature of the NK T cell response using several of our ceramide-like glycolipids. […] These responses are similar to those seen for DB01-1, an analogue that is structurally almost identical to KRN7000 (C24 fatty acid instead of C26, otherwise identical) and indistinguishable in terms of its activity in our hands. […] This selective IL-4 induction is virtually identical to that reported for the OCH analogue, and thus illustrates the potential for amino substituted analogues of KRN7000 to induce qualitatively different immunomodulatory effects in vivo. The results reported in FIG. 9 were obtained by measuring serum levels of IL-4 and IFNγ after administering a single injection of […], DB03-4, or DB03-5 to C57BL/6 mice. C57BL/6 mice (11-13 weeks old) were given a single i.p. injection of 4.8 nanomoles of the ceramide-like glycolipids or PBS/vehicle control. Serum cytokine levels were measured 2 and 20 hours later by capture ELISA. Bars show means of three mice, with standard deviation.
For experiments involving in vivo treatment of mice with the ceramide-like glycolipids, the ceramide-like glycolipids were administered by i.p. or i.v. injection in 0.2 ml PBS+0.025% Tween-20, or in vehicle alone. A typical dose is about 4-5 nmoles per animal per injection. Representative references for administering an α-galactosyl ceramide to mice by i.p., i.v. or p.o. routes are S. Sharif et al., Activation of natural killer T cells by alpha-galactosylceramide treatment prevents the onset and recurrence of autoimmune Type 1 diabetes, Nat. Med., Sep. 7, 2001, (9):1057-62 and K. Miyamoto et al., A synthetic glycolipid prevents autoimmune encephalomyelitis by inducing TH2 bias of natural killer T cells, Nature. Oct. 4, 2001, 413(6855):5314.

[5] = test system: T cell antigen receptors of human NKT cells; assay: Glycolipid human CD1d tetramer binding; settings: normal blood specimens
human NKT cell clones = assay: Human in vitro NKT cell assay system; type: cell-based; settings: proliferative responses and cytokine secretion
Text: For example, DB03-4 and DB03-5 are active in stimulation of human NKT cell clones in vitro, and elicits proliferative responses and cytokine secretion when evaluated using culture systems previously established in the literature (See, e.g., Spada F M, Sugita M, Watts G F M, Koezuka Y, and Porcelli S A. Low expression but potent antigen presenting function of CD1d on monocyte lineage cells, Eur. J. Immunol., 30:3468-3477 (2000), and Spada F M, Koezuka Y, Porcelli S A, CD1d-restricted recognition of synthetic glycolipid antigens by human NK T cells. J Exp Med; 188:1529-1534 (1998), see also, Lee P T et al., J Clin Invest., 2002 September; 110(6):793-800. […] Acad. Sci. (USA), 102:3383-8 (2005)).

NOD mice [6] = assay: Prevention of type 1 diabetes in NOD mice; type: in vivo; settings: i.p. once per week, 200 micrograms/kg; comparator DB01-1 (indicated as KRN7000)
Method: Cohorts of 6-8 female NOD mice were treated with placebo (vehicle) or DB01-1 (indicated as KRN7000), DB03-4 or DB03-5 injections once weekly beginning at 4-5 weeks of age. Treatment was discontinued after 5 injections (DB03-4) or 7 injections (DB03-5). Top graphs show incidence of glycosuria, and bottom graphs show survival in each cohort.
Given the widely held belief that selective augmentation of IL-4 production can be protective or therapeutic in the setting of many autoimmune diseases, we have initiated studies to examine the efficacy of compounds such as DB03-4 and DB03-5 in diabetes prone NOD mice. […] The results reported in FIG. 10 were obtained by treating three groups, each consisting of 9-12 female NOD mice, starting from age 5 weeks with a ceramide-like glycolipid. The indicated ceramide-like glycolipids (DB03-4, DB03-5, or KRN7000) were injected i.p. once per week in a dose of 200 micrograms/kg. Treatment was discontinued at 11 weeks of age, and the mice were monitored weekly for glucosuria (top) and death (bottom).
For experiments involving in vivo treatment of mice with the ceramide-like glycolipids, the ceramide-like glycolipids were administered by i.p. or i.v. injection in 0.2 ml PBS+0.025% Tween-20, or in vehicle alone. A typical dose is about 4-5 nmoles per animal per injection. […]

NZB/W-F1 mice = assay: SLE in NZB/W-F1 mice; type: in vivo
NK T hybridoma DN3A4.1-2 = assay: Upregulation of CD40L (CD154), FACS; type: cell-based, mouse; settings: 0.5 uM glycolipid, 18 hours, RMA-S/CD1d cells
Method: The upregulation of CD40L by ceramide-like glycolipids reported in FIG. 11 were obtained by incubating NK T hybridoma DN3A4.1-2 with RMA-S/CD1d cells at a ratio of 2:1 in the presence of 0.5 uM of ceramide-like glycolipid for 18 hours. Cells were then resuspended and labeled with mAbs specific for CD5 and CD40L. Levels of CD40L were determined by FACS analysis of the population gated for CD5 staining.

[7] = test system: mouse model of experimental allergic encephalomyelitis (EAE); settings: compared with KRN7000; cited from earlier work
mice = settings: administered in vivo to mice; cited from earlier work

Structure (SMILES): CCCCCCCCCCCCCCCCCCCCCCCCCC(=O)N[C@@H](CO[C@H]1O[C@H](CO)[C@H](O)[C@H](O)[C@H]1O)[C@H](O)[C@H](O)CCCCCCCCCCCCCC [KRN7000, (2S,3S,4R)-1-O-(α-D-galactopyranosyl)-N-hexacosanoyl-2-amino-1,3,4-octadecanetriol]
- incidence of diabetes (NOD mice [1]): approximately 5%

Structure (SMILES): CCCCCCCCCCCCCC[C@@H](O)[C@@H](O)[C@H](COC1OC(CO)C(O)C(O)C1O)NC(=O)C(c1ccccc1)c1ccccc1 (some centres unmarked) [YTC03-17]
- response (IL-2 production) (NK T hybridoma DN32.D3 [2]): very little or no response at all
- potency relative to KRN7000 (IL-2 production) (NK T hybridoma DN32.D3 [3]): presented about equally
- agonist activity on iNKT cells (iNKT cells; in vitro): strong agonist activity
- in vitro activity at modulating cytokines (iNKT cells): show in vitro activity
- effectiveness of compound (NK T cells): Particularly effective
- potency relative to KRN7000 (IL-2 production) (NK T hybridoma DN32.D3 [4]): markedly more potent than KRN7000

Structure (SMILES): CCCCC/C=C\C/C=C\C/C=C\C/C=C\CCCC(=O)N[C@@H](COC1OC(CO)C(O)C(O)C1O)[C@H](O)[C@H](O)CCCCCCCCCCCCCC (some centres unmarked) [DB03-5]
- serum IFNγ response (C57BL/6 mice; 20 hours after single i.p. injection of 4.8 nanomoles): not seen
- serum IL-4 response (C57BL/6 mice; two hours after single i.p. injection of 4.8 nanomoles): strong IL-4 response
- binding of glycolipid human CD1d tetramers to human NKT cells [5]: bind strongly
- stimulation of human NKT cell clones (human NKT cell clones): active
- cytokine bias (iNKT cells): bias towards inducing Type 2 cytokines
- IL-4 induction (iNKT cells; in vitro): strong inducers of IL-4
- IFNγ induction (iNKT cells; in vitro, DB03-3: in some murine strains): blunted IFNγ
- in vitro activity at modulating cytokines (iNKT cells): show in vitro activity
- prevention of diabetes in NOD mice compared with KRN7000 (NOD mice [6]): superior to KRN7000

Structure (SMILES): CCCCCCCCCCCCCCCCCCCCCCCC(=O)N[C@@H](CO[C@@H]1OC(C)[C@@H](O)[C@H](O)C1O)[C@H](O)[C@H](O)CCCCCCCCCCCCCC (some centres unmarked) [DB03-8]
- effect on SLE (NZB/W-F1 mice): exacerbates SLE
- CD40L expression (NK T hybridoma DN3A4.1-2): capable of inducing CD40L
- agonist activity on iNKT cells (iNKT cells; in vitro): weak agonist
- in vitro activity at modulating cytokines (iNKT cells): show in vitro activity

Structure (SMILES): CCCCCCCCCCCCCCCCCCCCCCCC(=O)N[C@@H](COC1OC(CO)C(O)C(O)C1O)[C@H](O)[C@H](O)CCCCC (some centres unmarked) [OCH]
- suppression of autoimmunity in EAE [7]: enhanced ability to suppress autoimmunity
- IFNγ production in vivo (mice): failed to stimulate the strong production of interferon-γ
- IL-4 production in vivo (mice): selective production of interleukin-4
